Source: ChEMBL document CHEMBL5727946, “PD-1/PD-L1 inhibitors” (2020)

Biological target: Programmed cell death protein 1/Programmed cell death 1 ligand 1 (Homo sapiens, UniProt Q15116+Q9NZQ7)
Assay: PD-1/PD-L1 & CTLA/CD80 Biochemical Protein-Protein Interaction Assay: Compounds were tested in biochemical protein-protein interaction assays to determine if they can specifically block the interaction between the extracellular domains of PD-1/PD-L1 or CTLA/CD80. Binding of the protein pairs is measured using a bead based Amplified Luminescent Proximity Homogeneous Assay (ALPHA) platform. […] Final protein concentration in the assays were 0.3 nM (His tagged PD-L1), 2.5 nM (biotinylated Fc-PD-1), 1 nM (His tagged CTLA4) and 1 nM (biotinylated CD80).
Format: protein-complex assay

Chain of Programmed cell death protein 1/Programmed cell death 1 ligand 1 (Q15116 whole entry, the tested form may be a part): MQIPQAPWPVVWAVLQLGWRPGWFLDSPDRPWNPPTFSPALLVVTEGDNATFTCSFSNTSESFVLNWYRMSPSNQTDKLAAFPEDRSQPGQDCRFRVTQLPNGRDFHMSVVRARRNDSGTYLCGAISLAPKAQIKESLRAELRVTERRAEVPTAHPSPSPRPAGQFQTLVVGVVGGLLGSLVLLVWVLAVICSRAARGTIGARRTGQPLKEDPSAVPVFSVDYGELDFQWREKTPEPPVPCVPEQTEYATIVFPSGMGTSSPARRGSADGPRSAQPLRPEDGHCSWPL
Chain of Programmed cell death protein 1/Programmed cell death 1 ligand 1 (Q9NZQ7 whole entry, the tested form may be a part): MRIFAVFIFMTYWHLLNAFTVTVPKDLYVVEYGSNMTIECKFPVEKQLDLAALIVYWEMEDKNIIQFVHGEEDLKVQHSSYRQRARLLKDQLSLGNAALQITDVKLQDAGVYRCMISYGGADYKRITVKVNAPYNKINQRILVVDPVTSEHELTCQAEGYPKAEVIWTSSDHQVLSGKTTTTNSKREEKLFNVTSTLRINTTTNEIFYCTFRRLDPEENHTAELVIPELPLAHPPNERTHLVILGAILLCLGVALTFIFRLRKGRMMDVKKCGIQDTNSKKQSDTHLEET

Row | Compound | IC50 [nM]
1 | COc1nc(O[C@H]2CCc3c(-c4cccc(-c5cnc([C@@H](C)NC[C@H]6CCC(=O)N6)c(OC)n5)c4Cl)cccc32)c(Cl)cc1CN1CC[C@@H](C(=O)O)C1 | ≤ 0.064
2 | CCS(=O)(=O)NC(=O)[C@@H]1CCN(Cc2cc(Cl)c(O[C@H]3CCc4c(-c5cccc(-c6ccc(CNC[C@@H]7CCC(=O)N7)c(OC)n6)c5Cl)cccc43)nc2OC)C1 | 0.117
3 | COc1nc(-c2cccc(-c3cccc4c3CC[C@@H]4Oc3nc(OC)c(CN4CC[C@@H](C(=O)NS(C)(=O)=O)C4)cc3Cl)c2Cl)ccc1CN1CC(C)(O)C1 | ≤ 0.064
4 | COc1nc(-c2cccc(-c3cccc4c3CC[C@@H]4Oc3nc(OCc4cncc(Cl)c4)c(CNC4(C(=O)O)CC4)cc3C(F)(F)F)c2Cl)ccc1CNC[C@@H]1CCC(=O)N1 | 0.101
5 | COc1nc(-c2cccc(-c3cccc4c3CC[C@@H]4Oc3nc(OC)c(CN4CC[C@@H](C(=O)NS(=O)(=O)C(F)F)C4)cc3Cl)c2Cl)ccc1CNC[C@@H]1CCC(=O)N1 | 0.152
6 | COc1nc(-c2cccc(-c3cccc4c3CC[C@@H]4Oc3nc(OC)c(CN4CC(C(=O)NS(=O)(=O)C(F)F)C4)cc3Cl)c2Cl)ccc1CNC[C@@H]1CCC(=O)N1 | 0.199
7 | COc1nc(-c2cccc(-c3cccc4c3CC[C@@H]4Oc3nc(OCc4cncc(C#N)c4)c(CN4CC[C@@H](C(=O)O)C4)cc3Cl)c2Cl)ccc1CNC[C@@H]1CCC(=O)N1 | ≤ 0.064
8 | COc1nc(-c2cccc(-c3cccc4c3CC[C@@H]4Oc3nc(OC)c(CN4CCC[C@@H]4C(=O)O)cc3Cl)c2Cl)ccc1CNC[C@@H]1CCC(=O)N1 | ≤ 0.064
9 | COc1nc(-c2cccc(-c3cccc4c3CC[C@@H]4Oc3nc(OC)c(CN4CC[C@@H](C(=O)NS(C)(=O)=O)C4)cc3Cl)c2Cl)ccc1CNC[C@@H]1CCC(=O)N1 | ≤ 0.064
10 | COc1nc(-c2cccc(-c3cccc4c3CC[C@@H]4Oc3nc(OC)c(CN4CCC[C@H]4C(=O)O)cc3Cl)c2Cl)ccc1CNC[C@@H]1CCC(=O)N1 | ≤ 0.064
11 | COc1nc(-c2cccc(-c3cccc4c3CC[C@@H]4Oc3nc(OC)c(CN4CC(C(=O)NS(C)(=O)=O)C4)cc3Cl)c2Cl)ccc1CN1CC(C)(O)C1 | 0.088
12 | COc1nc(-c2cccc(-c3cccc4c3CC[C@@H]4Oc3nc(OCc4cncc(F)c4)c(CN4CC5(C(=O)O)CCC4CC5)cc3Cl)c2Cl)ccc1CNC[C@@H]1CCC(=O)N1 | ≤ 0.064
13 | COc1nc(-c2cccc(-c3cccc4c3CC[C@@H]4Oc3nc(OC)c(CNC4(C(=O)O)CCC4)cc3Cl)c2Cl)ccc1CNC[C@@H]1CCC(=O)N1 | ≤ 0.064
14 | CCOc1nc(O[C@H]2CCc3c(-c4cccc(-c5ccc(CNC[C@@H]6CCC(=O)N6)c(OC)n5)c4Cl)cccc32)c(Cl)cc1CN1CC2(C(=O)O)CCC1CC2 | ≤ 0.064
15 | COc1nc(-c2cccc(-c3cccc4c3CC[C@@H]4Oc3nc(OCc4cncc(C#N)c4)c(CN4CC[C@H](C(=O)O)C4)cc3Cl)c2Cl)ccc1CNC[C@@H]1CCC(=O)N1 | ≤ 0.064
16 | COc1nc(-c2cccc(-c3cccc4c3CC[C@@H]4Oc3nc(OC)c(CN4CC(C(=O)O)C4)cc3Cl)c2Cl)ccc1CN1CC(C)(O)C1 | ≤ 0.064
17 | COc1nc(-c2cccc(-c3cccc4c3CC[C@@H]4Oc3nc(OCC#N)c(CN4CC5(C(=O)O)CCC4CC5)cc3Cl)c2Cl)ccc1CNC[C@@H]1CCC(=O)N1 | ≤ 0.064
18 | COc1nc(-c2cccc(-c3cccc4c3CC[C@@H]4Oc3nc(OCc4cncc(C#N)c4)c(CN4CC5(C(=O)O)CCC4CC5)cc3Cl)c2Cl)ccc1CNC[C@@H]1CCC(=O)N1 | ≤ 0.064
19 | COc1nc(-c2cccc(-c3cccc4c3CC[C@@H]4Oc3nc(OC)c(CN4CC[C@H](C(=O)NS(C)(=O)=O)C4)cc3Cl)c2Cl)ccc1CNC[C@@H]1CCC(=O)N1 | ≤ 0.064
20 | CCOC(=O)C1CN(Cc2cc(Cl)c(O[C@H]3CCc4c(-c5cccc(-c6ccc(CNC[C@@H]7CCC(=O)N7)c(OC)n6)c5Cl)cccc43)nc2OC)C1 | 1.99
21 | COc1nc(-c2cccc(-c3cccc4c3CC[C@@H]4Oc3nc(OC)c(CN4CCC[C@@H](C(=O)NS(C)(=O)=O)C4)cc3Cl)c2Cl)ccc1CNC[C@@H]1CCC(=O)N1 | 0.068
22 | COC(=O)[C@@H]1CCN(Cc2cc(Cl)c(O[C@H]3CCc4c(-c5cccc(-c6ccc(CNC[C@@H]7CCC(=O)N7)c(OC)n6)c5Cl)cccc43)nc2OC)C1 | 3.9
23 | COc1nc(-c2cccc(-c3cccc4c3CC[C@@H]4Oc3nc(OC)c(CNC4(C(=O)O)CC4)cc3Cl)c2Cl)ccc1CNC[C@@H]1CCC(=O)N1 | ≤ 0.064
24 | COc1nc(-c2cccc(-c3cccc4c3CC[C@@H]4Oc3nc(OC)c(CNC4(C(=O)O)CCOCC4)cc3Cl)c2Cl)ccc1CNC[C@@H]1CCC(=O)N1 | ≤ 0.064
25 | COc1nc(-c2cccc(-c3cccc4c3CC[C@@H]4Oc3nc(OC)c(CN4CCC[C@@]4(C)C(=O)O)cc3Cl)c2Cl)ccc1CNC[C@@H]1CCC(=O)N1 | ≤ 0.064
26 | COc1nc(-c2cccc(-c3cccc4c3CC[C@@H]4Oc3nc(OC)c(CN[C@@H]4CCC[C@@H]4C(=O)O)cc3Cl)c2Cl)ccc1CNC[C@@H]1CCC(=O)N1 | ≤ 0.064
27 | COc1nc(-c2cccc(-c3cccc4c3CC[C@@H]4Oc3nc(OC(F)F)c(CN4CC5(C(=O)O)CCC4CC5)cc3Cl)c2Cl)ccc1CNC[C@@H]1CCC(=O)N1 | 0.169
28 | CCOc1nc(O[C@H]2CCc3c(-c4cccc(-c5ccc(CNC[C@@H]6CCC(=O)N6)c(OC)n5)c4Cl)cccc32)c(Cl)cc1CN1CC[C@H](C(=O)O)C1 | ≤ 0.064
